Test results published in ChEMBL document CHEMBL1151875, “Design and synthesis of a novel tyrosine kinase inhibitor template” (Bioorg Med Chem, 2009).

Assays:
[1] = molecular target: ALK tyrosine kinase receptor (Homo sapiens, UniProt Q9UM73); assay: Inhibition of 6xHis-tagged human NPM-ALK expressed in insect cells
Insulin receptor = Insulin receptor (Homo sapiens, UniProt P06213); assay: Inhibition of human recombinant IRK
[2] = molecular target: Hepatocyte growth factor receptor (Homo sapiens, UniProt P08581); assay: Inhibition of recombinant MET
[3] = molecular target: Insulin-like growth factor 1 receptor (Homo sapiens, UniProt P08069); assay: Inhibition of recombinant IGFR1
Sequence of Insulin-like growth factor 1 receptor (P08069 31-736 limits assumed): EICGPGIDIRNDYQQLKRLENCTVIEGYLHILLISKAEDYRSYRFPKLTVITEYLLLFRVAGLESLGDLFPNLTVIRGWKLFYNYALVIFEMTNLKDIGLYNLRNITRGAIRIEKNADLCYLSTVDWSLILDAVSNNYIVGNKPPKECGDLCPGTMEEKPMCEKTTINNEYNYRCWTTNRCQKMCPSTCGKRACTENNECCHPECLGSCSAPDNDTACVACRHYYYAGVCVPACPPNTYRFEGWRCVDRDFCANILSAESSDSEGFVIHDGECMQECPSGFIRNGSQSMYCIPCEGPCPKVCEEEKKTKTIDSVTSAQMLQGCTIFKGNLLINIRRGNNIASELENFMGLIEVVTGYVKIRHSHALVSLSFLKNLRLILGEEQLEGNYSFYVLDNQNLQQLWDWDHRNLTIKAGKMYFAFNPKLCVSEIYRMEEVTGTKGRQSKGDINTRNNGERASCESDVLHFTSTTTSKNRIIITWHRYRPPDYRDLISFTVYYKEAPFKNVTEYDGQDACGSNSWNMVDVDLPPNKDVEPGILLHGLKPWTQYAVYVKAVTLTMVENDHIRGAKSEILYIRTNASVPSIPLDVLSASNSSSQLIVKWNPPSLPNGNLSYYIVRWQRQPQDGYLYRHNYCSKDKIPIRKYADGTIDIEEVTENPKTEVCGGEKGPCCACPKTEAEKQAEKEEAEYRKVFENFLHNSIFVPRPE
Sequence of Insulin-like growth factor 1 receptor (P08069 741-1367 limits assumed): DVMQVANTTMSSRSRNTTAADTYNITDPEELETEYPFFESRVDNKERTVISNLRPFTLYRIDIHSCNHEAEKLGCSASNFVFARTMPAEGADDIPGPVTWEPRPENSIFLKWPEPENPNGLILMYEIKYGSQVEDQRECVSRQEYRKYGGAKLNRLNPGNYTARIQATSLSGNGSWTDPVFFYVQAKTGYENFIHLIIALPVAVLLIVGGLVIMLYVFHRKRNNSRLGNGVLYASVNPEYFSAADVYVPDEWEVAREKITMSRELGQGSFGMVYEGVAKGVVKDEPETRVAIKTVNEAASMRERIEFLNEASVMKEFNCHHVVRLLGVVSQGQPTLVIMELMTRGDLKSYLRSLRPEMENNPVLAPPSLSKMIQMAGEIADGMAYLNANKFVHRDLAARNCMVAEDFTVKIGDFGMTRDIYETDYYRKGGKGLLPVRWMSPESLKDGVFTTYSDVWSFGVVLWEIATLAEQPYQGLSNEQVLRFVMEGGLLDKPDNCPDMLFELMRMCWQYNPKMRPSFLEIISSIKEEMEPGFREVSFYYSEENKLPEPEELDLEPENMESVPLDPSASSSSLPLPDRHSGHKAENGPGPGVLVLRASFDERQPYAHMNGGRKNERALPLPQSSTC

[4] = molecular target: Tyrosine-protein kinase JAK2 (Homo sapiens, UniProt O60674); assay: Inhibition of recombinant JAK2

Sequence of ALK tyrosine kinase receptor (Q9UM73 19-1620 limits assumed): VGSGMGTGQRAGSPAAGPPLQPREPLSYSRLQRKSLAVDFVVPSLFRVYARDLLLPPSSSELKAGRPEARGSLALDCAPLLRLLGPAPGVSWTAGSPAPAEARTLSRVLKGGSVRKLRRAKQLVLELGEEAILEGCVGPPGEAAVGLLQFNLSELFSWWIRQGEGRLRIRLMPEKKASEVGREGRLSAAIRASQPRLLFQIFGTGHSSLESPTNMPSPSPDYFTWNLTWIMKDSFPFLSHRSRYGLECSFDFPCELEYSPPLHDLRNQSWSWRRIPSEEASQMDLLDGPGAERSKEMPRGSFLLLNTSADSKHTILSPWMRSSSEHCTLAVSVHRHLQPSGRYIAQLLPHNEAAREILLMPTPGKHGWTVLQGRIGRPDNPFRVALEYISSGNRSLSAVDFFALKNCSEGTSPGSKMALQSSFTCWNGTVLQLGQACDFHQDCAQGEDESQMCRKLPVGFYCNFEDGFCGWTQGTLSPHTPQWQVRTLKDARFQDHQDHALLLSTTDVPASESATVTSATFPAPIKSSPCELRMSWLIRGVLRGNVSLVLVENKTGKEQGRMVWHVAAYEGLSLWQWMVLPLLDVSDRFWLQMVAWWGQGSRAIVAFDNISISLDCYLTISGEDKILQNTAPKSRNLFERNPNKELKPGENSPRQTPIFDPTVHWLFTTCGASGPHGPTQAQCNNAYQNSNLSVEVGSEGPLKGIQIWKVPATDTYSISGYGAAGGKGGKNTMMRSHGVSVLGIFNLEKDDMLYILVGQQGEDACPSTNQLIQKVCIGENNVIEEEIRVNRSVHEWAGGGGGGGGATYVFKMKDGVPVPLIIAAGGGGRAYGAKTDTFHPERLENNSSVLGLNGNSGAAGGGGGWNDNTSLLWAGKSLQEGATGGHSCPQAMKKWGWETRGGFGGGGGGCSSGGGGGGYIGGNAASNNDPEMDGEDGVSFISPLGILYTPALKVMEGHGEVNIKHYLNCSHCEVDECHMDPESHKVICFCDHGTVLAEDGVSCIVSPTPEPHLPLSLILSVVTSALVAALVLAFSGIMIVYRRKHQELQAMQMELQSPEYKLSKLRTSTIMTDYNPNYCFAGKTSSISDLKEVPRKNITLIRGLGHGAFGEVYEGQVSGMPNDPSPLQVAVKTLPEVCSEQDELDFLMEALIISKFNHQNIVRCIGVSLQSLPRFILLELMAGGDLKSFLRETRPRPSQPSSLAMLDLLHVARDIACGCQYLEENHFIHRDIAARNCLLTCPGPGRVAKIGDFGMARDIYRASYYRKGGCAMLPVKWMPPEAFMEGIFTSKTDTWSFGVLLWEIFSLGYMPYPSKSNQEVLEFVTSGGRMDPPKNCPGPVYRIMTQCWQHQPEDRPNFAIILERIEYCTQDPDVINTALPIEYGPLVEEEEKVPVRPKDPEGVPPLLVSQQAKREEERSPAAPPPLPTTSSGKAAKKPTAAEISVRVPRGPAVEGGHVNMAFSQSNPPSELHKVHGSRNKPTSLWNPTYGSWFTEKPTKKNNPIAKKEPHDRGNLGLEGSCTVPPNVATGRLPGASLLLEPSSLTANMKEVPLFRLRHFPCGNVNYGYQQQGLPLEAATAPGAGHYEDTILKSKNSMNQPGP
Sequence of Insulin receptor (P06213 28-758 limits assumed): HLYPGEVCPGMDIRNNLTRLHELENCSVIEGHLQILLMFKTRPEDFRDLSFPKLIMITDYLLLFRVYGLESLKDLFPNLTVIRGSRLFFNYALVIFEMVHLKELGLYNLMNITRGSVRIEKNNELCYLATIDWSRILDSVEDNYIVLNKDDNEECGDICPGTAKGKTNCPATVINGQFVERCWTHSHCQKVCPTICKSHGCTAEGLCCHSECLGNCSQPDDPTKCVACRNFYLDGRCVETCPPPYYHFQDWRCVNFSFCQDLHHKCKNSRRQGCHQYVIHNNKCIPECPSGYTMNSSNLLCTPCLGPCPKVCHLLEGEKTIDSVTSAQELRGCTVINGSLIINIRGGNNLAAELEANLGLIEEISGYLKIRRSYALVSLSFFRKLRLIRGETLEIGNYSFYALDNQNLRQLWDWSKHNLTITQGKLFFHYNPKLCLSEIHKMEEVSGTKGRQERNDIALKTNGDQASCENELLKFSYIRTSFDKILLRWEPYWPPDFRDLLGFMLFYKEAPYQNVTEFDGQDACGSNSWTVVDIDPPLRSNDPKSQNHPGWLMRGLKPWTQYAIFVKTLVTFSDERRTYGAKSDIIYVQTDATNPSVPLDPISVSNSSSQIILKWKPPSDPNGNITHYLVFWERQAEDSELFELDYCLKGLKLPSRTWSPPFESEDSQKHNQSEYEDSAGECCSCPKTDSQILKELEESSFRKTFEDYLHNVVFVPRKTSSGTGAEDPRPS
Sequence of Insulin receptor (P06213 763-1382 limits assumed): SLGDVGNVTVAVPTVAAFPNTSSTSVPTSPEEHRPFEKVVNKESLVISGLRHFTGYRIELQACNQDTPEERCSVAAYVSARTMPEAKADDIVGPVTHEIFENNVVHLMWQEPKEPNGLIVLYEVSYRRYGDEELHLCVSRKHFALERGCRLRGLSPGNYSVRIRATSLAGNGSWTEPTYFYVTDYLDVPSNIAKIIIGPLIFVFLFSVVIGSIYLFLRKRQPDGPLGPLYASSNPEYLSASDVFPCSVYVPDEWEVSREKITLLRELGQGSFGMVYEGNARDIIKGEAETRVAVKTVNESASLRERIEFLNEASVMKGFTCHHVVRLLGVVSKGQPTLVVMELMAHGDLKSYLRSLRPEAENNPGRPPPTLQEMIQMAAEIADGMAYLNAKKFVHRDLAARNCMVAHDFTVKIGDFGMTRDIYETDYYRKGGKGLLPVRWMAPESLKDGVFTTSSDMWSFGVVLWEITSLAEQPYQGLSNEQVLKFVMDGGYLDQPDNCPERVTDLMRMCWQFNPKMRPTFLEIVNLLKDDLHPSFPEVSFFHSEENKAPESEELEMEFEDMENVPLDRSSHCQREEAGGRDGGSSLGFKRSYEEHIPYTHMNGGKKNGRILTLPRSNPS

Row | Structure (SMILES) | IC50 [1] [µM] | IC50 (Insulin receptor) [µM] | IC50 [2] [µM] | IC50 [3] [µM] | IC50 [4] [µM]
1 | Clc1nccc2c1-c1[nH]c3ccc(Br)cc3c1CCN2CC(c1ccccc1)c1ccccc1 | > 40 | > 40 | > 40 | – | –
2 | C[C@@H](c1ccccc1)N1CCc2c([nH]c3ccc(Br)cc23)-c2c(I)ccnc21 | 8.3 | > 40 | > 40 | – | –
3 | Brc1ccc2[nH]c3c(c2c1)CCN(CC(c1ccccc1)c1ccccc1)c1nccc(I)c1-3 | 5 | > 40 | 8.6 | – | –
4 | C[C@@H](c1ccccc1)N1CCc2c([nH]c3ccc(Br)cc23)-c2c1ccnc2Cl | 5.8 | 11.9 | 12.9 | – | –
5 | COc1nc(C)cc2c1-c1[nH]c3cc(N4CCN(C)CC4)ccc3c1CCN2CCc1ccccc1 | 5.1 | 3.5 | 5.5 | 4.5 | 5.1
6 | Clc1nccc2c1-c1[nH]c3ccc(Br)cc3c1CCN2CCc1c[nH]c2ccccc12 | 9.3 | > 40 | > 40 | – | –
7 | COc1cc(C)nc2c1-c1[nH]c3ccccc3c1CCN2CCc1ccccc1 | > 40 | > 40 | > 40 | > 40 | > 40
8 | Cc1cc2c(c(=O)[nH]1)-c1[nH]c3ccccc3c1CCN2CCc1ccccc1 | 18 | 15.6 | 19.7 | 11.8 | 16.9
9 | Oc1ccc(CCN2CCc3c([nH]c4ccc(Br)cc34)-c3c(I)ccnc32)cc1 | 6.2 | 11.1 | 9.7 | – | –
10 | Cc1cc2c(c(Cl)n1)-c1[nH]c3ccccc3c1CCN2CCc1ccccc1 | 21.3 | 30.5 | 26.1 | 24.7 | 33.5
11 | COc1nc(C)cc2c1-c1[nH]c3ccccc3c1CCN2CCc1ccccc1 | > 40 | > 40 | > 40 | > 40 | > 40
12 | Cc1cc(Cl)c2c(n1)N(CCc1ccccc1)CCc1c-2[nH]c2ccccc12 | 11.8 | 19.8 | 12.4 | 12.6 | > 40
13 | Oc1ccc(CCN2CCc3c([nH]c4ccc(Br)cc34)-c3c2ccnc3Cl)cc1 | 7.1 | > 40 | 12.5 | – | –
